Laboratory results published in patent US20250059232A1, “PENTAPEPTIDE AND USE THEREOF” (ENSOL BIOSCIENCES INC., priority 2021, published 2025).

Key:
PC3 = PC3 cell viability (CCK-8) in NK92 co-culture with anti-PD-L1; format: cell-based, human; details: 300 uM with 10 ug/ml anti-PD-L1, 24/48/72 hours of co-culturing
Procedure: The experiment described below was performed to evaluate the tumor cell proliferation inhibitory effect of the combination treatment of the peptide of Example 1 and the anti-PD-L1, which is an immune checkpoint inhibitor. First, 5×10^3 cells of a human prostate cancer cell line PC3, 5×10^3 cells of a human lung cancer cell line A549 (Korean Cell Line Bank), and 1×10^4 cells of a human triple negative breast cancer cell line MDA-MB-231 (ATCC) were seeded in 96 wells and stabilized by culturing overnight. Then, the seeded cells were treated with 10 ug/ml of the anti-PD-L1 and 300 uM of the peptide of Example 1, for each condition while NK92 cells for 5×10^3 cells of each of the PC3 cell line and the MDA-MB-231 cell line and 2.5×10^3 cells of the A549 cell line were additionally seeded. After 24/48/72 hours of co-culturing (for PC3 and MDA-MB-231) and 24/48 hours of co-culturing (for A549), the NK92 cells were removed by washing, and the cancer cell viability was measured by CCK-8 addition. FIG. 15 is a graph illustrating the changes in PC3 cell viability over culturing time for each test group in an anticancer effect evaluation test. In FIG. 15, the x-axis represents culturing time and the y-axis represents cell viability (%). FIG. 16 is a graph illustrating the changes in A549 cell viability over culturing time for each test group in an anticancer effect evaluation test. […]

[1] = Stability test: HPLC relative purity of peptide dissolved in buffer, by pH and temperature; format: physicochemical
Procedure: For Example 1 and Comparative Example 1, stability tests according to pH for each temperature were performed.
Stability tests for each peptide were performed by liquid chromatography purity analysis for each temperature and each pH according to analysis timing (initial, 24 hours, 130 hours). […] Samples were analyzed by injecting 20 ul of each sample with an auto-sample injector, and the analysis column was Inspire C18 (4.6×250 mm, […], 12 nm) manufactured by Dikma. The analysis temperature was 40° C., and a UV wavelength of 215 nm was used.
On the basis of the HPLC analysis results, relative purity was calculated for Comparative Example 1 and Example 1 for each storage condition. The relative purity is the percentage of measured purity changing according to the storage period, with the initial purity being set to 100% for each sample. FIGS. 1 and 2 are graphs showing the results of stability tests for Example and Comparative Example stored at a temperature of 25° C., in which FIG. 1 is a graph of a test result for 24 hours of storage, and FIG. 2 is a graph of a test result for 130 hours of storage. FIGS. 3 and 4 are graphs showing the results of stability tests for Example and Comparative Example stored at 40° C., in which FIG. 3 is a graph of a test result for 24 hours of storage, and FIG. 4 is a graph of a test result for 130 hours of storage. In each graph, the x-axis represents the test group by pH and the y-axis represents the relative purity […].

MDA-MB-231 = MDA-MB-231 fat pad xenograft in athymic nude mouse: tumor volume and weight; format: in vivo, human
Procedure: 5×10^6 cells/head of the human triple negative breast cancer cell line MDA-MB-231 (American Type Culture Collection (ATCC)) were mixed with Matrigel and PBS (1:1). 100 ul of the mixture was injected into the right third fat pad of 7-week-old female athymic nude mouse. After the transplantation, drug administration started from an average tumor size of 80 mm^3. Paclitaxel 20 mg/kg was administered on Day 0 and on Day 1. That is, the paclitaxel 20 mg/kg was administered a total of two times. Then, the peptide of Example 1 was administered in a dose of 100 mg/kg on Day 2, Day 4, and Day 6. That is, the peptide of Example 1 was administered a total of three times. Tumor volumes were measured 3 times a week for 3 weeks after administration of the first dose. Tumor weights were measured by necropsy after the end of the experiment. For each group, ten mice were used.
Tumor volume changes over time for each group are shown in FIG. 8, and tumor weight on the eighteenth day after the administration of the first dose for each group is shown in FIG. 9. FIG. 8 is a graph illustrating the changes in tumor volume over time after sample administration in animal experimentation. In FIG. 8, the x-axis represents the number of days elapsed after the start of administration and the y-axis represents the tumor volume change (mm^3). FIG. 9 is a graph illustrating a tumor weight for each test group in animal experimentation. In FIG. 9, the x-axis represents test groups and the y-axis represents tumor weights (mg).

[2] = 4-week repeated subcutaneous toxicity test in rats; format: in vivo, rat
Procedure: Ten female and male rats were administered the pentapeptide of Example 1 subcutaneously at doses of 500, 1000, 2000 mg/kg daily for 4 weeks to investigate toxicity, and a safety evaluation test was performed. Specifically, general symptom observation, body weight measurement, feed consumption measurement, ophthalmological examination, and urinary examination were performed. After the end of the observation period, hematology and clinical biochemistry test, organ weight measurement, visual examination at autopsy, and histopathological examination were performed. […] Synthesizing the results described above, the no observed adverse effect level (NOEAL) for female and male was determined to be greater than or equal to 2,000 mg/kg/day when the pentapeptide of Example 1 was administered repeatedly subcutaneously to the rats for 4 weeks.

[3] = 100 mg/kg co-administered with paclitaxel, eighteenth day after first dose
[4] = 500, 1000, 2000 mg/kg subcutaneous daily for 4 weeks

Ac-QLHLD-OH [Example 1, acetyl-QLHLD]
Cancer cell viability compared to the group treated with only anti-PD-L1 (PC3): significant decrease in cancer cell viability | Stability (summary in words) ([1]; liquid state, pH 2-9, 25 and 40° C., up to 130 hours): extremely stable regardless of storage conditions | Relative purity ([1]; pH 2, 25 ± 2° C., RH 60 ± 5%, storage 0 hours (initial set to 100%)): 100.0% | Relative purity ([1]; pH 2, 25 ± 2° C., RH 60 ± 5%, storage 24 hours): 99.7% | Relative purity ([1]; pH 2, 25 ± 2° C., RH 60 ± 5%, storage 130 hours): 99.9% | Relative purity ([1]; pH 2, 40 ± 2° C., RH 75 ± 5%, storage 0 hours (initial set to 100%)): 100.0% | Relative purity ([1]; pH 2, 40 ± 2° C., RH 75 ± 5%, storage 24 hours): 99.4% | Relative purity ([1]; pH 2, 40 ± 2° C., RH 75 ± 5%, storage 130 hours): 95.8% | Relative purity ([1]; pH 5, 25 ± 2° C., RH 60 ± 5%, storage 0 hours (initial set to 100%)): 100.0% | Relative purity ([1]; pH 5, 25 ± 2° C., RH 60 ± 5%, storage 24 hours): 100.0% | Relative purity ([1]; pH 5, 25 ± 2° C., RH 60 ± 5%, storage 130 hours): 100.0% | Relative purity ([1]; pH 5, 40 ± 2° C., RH 75 ± 5%, storage 0 hours (initial set to 100%)): 100.0% | Relative purity ([1]; pH 5, 40 ± 2° C., RH 75 ± 5%, storage 24 hours): 100.0% | Relative purity ([1]; pH 5, 40 ± 2° C., RH 75 ± 5%, storage 130 hours): 100.0% | Relative purity ([1]; pH 7, 25 ± 2° C., RH 60 ± 5%, storage 0 hours (initial set to 100%)): 100.0% | Relative purity ([1]; pH 7, 25 ± 2° C., RH 60 ± 5%, storage 24 hours): 100.0% | Relative purity ([1]; pH 7, 25 ± 2° C., RH 60 ± 5%, storage 130 hours): 100.0% | Relative purity ([1]; pH 7, 40 ± 2° C., RH 75 ± 5%, storage 0 hours (initial set to 100%)): 100.0% | Relative purity ([1]; pH 7, 40 ± 2° C., RH 75 ± 5%, storage 24 hours): 100.0% | Relative purity ([1]; pH 7, 40 ± 2° C., RH 75 ± 5%, storage 130 hours): 100.0% | Relative purity ([1]; pH 9, 25 ± 2° C., RH 60 ± 5%, storage 0 hours (initial set to 100%)): 100.0% | Relative purity ([1]; pH 9, 25 ± 2° C., RH 60 ± 5%, storage 24 hours): 100.0% | Relative purity ([1]; pH 9, 25 ± 2° C., RH 60 ± 5%, storage 130 hours): 100.0% | Relative purity ([1]; pH 9, 40 ± 2° C., RH 75 ± 5%, storage 0 hours (initial set to 100%)): 100.0% | Relative purity ([1]; pH 9, 40 ± 2° C., RH 75 ± 5%, storage 24 hours): 99.9% | Relative purity ([1]; pH 9, 40 ± 2° C., RH 75 ± 5%, storage 130 hours): 99.8% | CR (mice in which the tumor disappeared) (MDA-MB-231; 100 mg/kg Day 2, 4, 6 after paclitaxel 20 mg/kg Day 0 and 1, ten mice): 20% | Reduction in tumor volume compared to control group (MDA-MB-231; [3]): 48% | Reduction in tumor weight compared to control group (MDA-MB-231; [3]): 51% | Day on which the tumor disappeared (MDA-MB-231; co-administered with paclitaxel, two mice): 14 days | Duration of the efficacy of a single-cycle drug treatment (MDA-MB-231; combination administration with paclitaxel): ≤ 2 weeks | Adverse findings related to the pentapeptide [2, 4]: no adverse findings | Deaths [2, 4]: no deaths occurred | No observed adverse effect level (NOEAL) ([2]; female and male, subcutaneous, daily for 4 weeks): greater than or equal to 2,000 mg/kg/day
